According to PMC5556019, “Targeting Apolipoprotein E/Amyloid β Binding by Peptoid CPO_Aβ17-21 P Ameliorates Alzheimer’s Disease Related Pathology and Cognitive Decline” (Scientific Reports, 2017):
Numbered stars: 1 amine (or outer) side, 2 acyl side, 3 side chain; on linkers, the order of the positions; unused ones are H or OH. Bridge positions count the residues as written; N and C are the ends. Square brackets hold non-standard residues; d marks the D form. Peptide text beside a SMILES is read from it. ξ: configuration not given here. N(CH2CH2CO)Gly = O=C(CN(CCC(=O)[*:3])[*:1])[*:2]; Nphe = O=C(O)CNCc1ccccc1; Nleu = CC(C)CNCC(=O)O; ξP = O=C(O)C1CCCN1; Sar = CNCC(=O)O

Experiments:
[1] = Thioflavin T aggregation assay, peptoid incubated alone; type: physicochemical; settings: up to 100 µM, 37 °C, 10 days, 100 mM Tris buffer pH 7.4
Procedure: (§1) Peptide Aβ42 or peptoid CPO_Aβ17-21 P were incubated alone at a concentration of 100 µM over a period of 7–10 days at 37 °C in 100 mM Tris buffer (pH 7.4). […] In aggregation inhibition experiments, apoE4 was pre-incubated with CPO_Aβ17-21 P in a molar ratio of 1:2 for 6 hrs at 37 °C followed by addition to freshly reconstituted Aβ42 on ice (molar ratio 100:1:2, Aβ42:apoE4:peptoid). As a control, Aβ42 was also incubated with CPO_Aβ17-21 P at a molar ratio of 100:2. For peptide Aβ40 all the experiments were conducted under the same conditions as Aβ42 except the peptide concentration was 400 µM. The molar ratio of Aβ40:apoE4:CPO_Aβ17-21 P was 100:1:2. (400 µM Aβ40:4 µM apoE4:8 µM CPO_Aβ17-21 P). Fibril formation by the different peptides at various time points was evaluated by a standard Thioflavin-T assay according to previously published protocols, [33].The samples were diluted in buffer containing 50 mM glycine, 2 µM Thioflavin T pH 9.2, and read on a Molecular Devices SpectraMax M2 spectrophotometer (Sunnyvale, CA) at excitation and emission wavelengths 440 and 482 nm.

[2] = system: apoE4 mediated Aβ42 aggregation; test: Thioflavin T assay of apoE4 mediated Aβ42 aggregation; type: biochemical, human
Procedure: as §1

APP/PS1 Tg mice = test: Plasma total cholesterol level; type: in vivo; settings: 0.2 mg per mouse i.p. twice weekly for 4 months; p > 0.05
Procedure: The effect of CPO_Aβ17-21 P on Aβ deposition was tested in APP/PS1 Tg mice with plaque pathology. This AD mouse model develops plaque pathology from the age of 3 months. Animals were divided into two groups and received intraperitoneally (i.p.) injections of 0.2 mg of CPO_ Aβ17–21 P per mouse in sterile saline (n = 11, 5 male, 6 female) or saline alone (n = 10, 5 male, 5 female) as a control twice weekly for 4 months, beginning at age 3 months. During the treatment, veterinary staff monitored animals for any signs of toxicity, such as changes in body weight, physical appearance, and altered behavior. Animals were sacrificed a week after administration of the last treatment dose and behavioral testing. All mouse care and experimental procedures were compliant with guidelines of animal experimentation and were approved by the Institutional Animal Care and Use Committee at the New York University School of Medicine.
Plasma cholesterol level was measured by using a Cholesterol E kit (Wako Diagnostics, Richmond, VA)[45]. The Cholesterol E is an enzymatic colorimetric method for the quantitative determination of total cholesterol in the blood.

[3] = system: SK-N-SH human neuroblastoma cells; test: Toxicity rescue: apoE4-enhanced cytotoxicity of oligomeric Aβ42; type: cell-based; settings: Aβ42 10 µM, apoE4 1 µM pre-incubated 6 hrs with inhibitor (Aβ12-28 P 4 µM; CPO_Aβ17-21 P 1 or 4 µM), three days
Procedure: Oligomeric Aβ42 was prepared as previously published. To prepare 100 µM oligomeric Aβ42 stock solution, 0.45 mg HFIP pretreated Aβ42 peptide was dissolved into 20 µl fresh dry dimethyl sulfoxide (DMSO) to form 5 mM Aβ42 DMSO solution; then 980 µl ice cold phenol-free Ham’s F-12 cell culture medium (with 146 mg/L L-Glutamine) was added to the Aβ42 DMSO solution followed by incubation at 4 °C for 24 hrs. CPO_ Aβ17–21 P or Aβ12-28 P was pre-incubated with apoE4 in DMEM medium containing 1% N-2 supplement for 6 hrs at 37 °C then mixed with freshly prepared oligomeric Aβ42 and added to SK-N-SH cells. For comparison, cells were incubated with Aβ42 alone and Aβ42 + apoE4, apoE alone, Aβ42 + CPO_Aβ17-21 P and Aβ42 + Aβ12-28 P as additional controls. The final concentration of peptides or peptoids was as follows: Aβ42 10 µM, apoE4 1 µM, Aβ12-28 P 4 µM and CPO_Aβ17-21 P 1 µM or 4 µM. Cells were under different treatments for three days and the cell viability was assessed as described above.

CC(C)CN1CC(=O)N2CCCC2C(=O)N(Cc2ccccc2)CC(=O)N(Cc2ccccc2)CC(=O)N(C)CC(=O)N(CC(N)=O)CCC1=O (centres unmarked) [CPO_Aβ17-21 P] ([Nleu][ξP][Nphe][Nphe][Sar][N(CH2CH2CO)Gly]-NH2; lactam N-6)
formation of aggregates or fibrils by the peptoid alone [1]: did not produce aggregates or fibrils | inhibition of apoE4 mediated Aβ42 aggregation ([2]; 100 µM Aβ42, molar ratio 100:1:2 Aβ42:apoE4:peptoid, apoE4 pre-incubated 6 hrs 37 °C, p = 0.0011): significant inhibition | Aβ42 fibril formation with peptoid versus Aβ42 alone ([2]; Aβ42 + peptoid without apoE4, molar ratio 100:2): no significant difference | plasma total cholesterol level, treated versus vehicle (APP/PS1 Tg mice): no significant difference | neutralization of apoE4-enhanced cytotoxicity of Aβ42 [3]: neutralized
